Results as given in US11028061B2, “Modulators of myocyte lipid accumulation and insulin resistance and methods of use thereof” (Sanford Burnham Prebys Medical Discovery Institute, priority 2015, dated 2021).

Legend:
[1] = tested on: primary murine skeletal myocytes; experiment: TAG accumulation in primary murine skeletal myocytes; format: cell-based; conditions: Mus musculus; primary murine skeletal myocytes; read-out: Activity Score (IC50), triacylglyceride (TAG) accumulation
rat H9c2 myocytes = experiment: Inhibition of TAG accumulation in rat H9c2 myocytes; format: cell-based; conditions: data not shown
human skeletal myotubes = experiment: Cellular glucose uptake assay ([3H]-2-deoxyglucose); format: cell-based; conditions: 10 μM SBI-477, 24 hours
Protocol: After differentiation, primary human skeletal myotubes were incubated with the indicated concentration of SBI-477 for 24 hours and then treated with insulin (100 nM) for 30 minutes. Cells were washed in phosphate-buffered saline (PBS) three times at room temperature and then incubated with Krebs-Ringer HEPES buffer (140 mM NaCl, 5 mM KCl, 1 mM CaCl2, 2.5 mM MgSO4, 2.5 mM, NaH2PO4, 20 mM HEPES and 0.1% bovine serum albumin) containing [3H]-2-deoxyglucose (1.0 μCi/mL) for 15 min. Glucose uptake was terminated by washing five times with ice-cold PBS. The cells were then solubilized with 0.5N sodium hydroxide (NaOH). The amount of [3H]-2-deoxyglucose taken up was measured by liquid scintillation analyzer (PerkinElmer) and normalized to total protein.

[2] = tested on: primary human skeletal myotubes; experiment: Fatty acid oxidation (FAO) assay, 3H-palmitate; format: cell-based; conditions: 24 hours
Protocol: FAO rates were determined for primary human skeletal myotubes with or without SBI-477 using 125 μM [3H]-palmitic acid (Djouadi, et al., Mol Genet Metab. 2003; 78(2):112-118). Primary human skeletal myotubes were grown and differentiated in 24-well plates. Cells were treated with the indicated concentration of SBI-477 for 24 hours. Following compound treatment, cells were rinsed three times with PBS and then incubated in 125 μM [3H]-palmitic acid (60 Ci/mmol) bound to fatty acid free albumin containing 1 mM carnitine for 2 hours at 37° C. The cell medium was transferred to a tube containing cold 10% trichloroacetic acid (TCA). The tubes were centrifuged at 8,500×g for 10 minutes at 4° C. The supernatant was immediately removed, mixed with 6N NaOH, and applied to ion-exchange resin (DOWEX 1; Sigma-Aldrich). The eluate was collected, measured by liquid scintillation analyzer (PerkinElmer) and normalized to total protein amount. The amount of cell protein was measured by Micro BCA protein assay kit (Thermo Scientific).

SCD-1 = SCD-1 (Homo sapiens, UniProt O00767); experiment: Direct inhibition of SCD-1 activity; format: biochemical; conditions: data not shown
MGAT1/2/3 = experiment: Direct inhibition of MGAT1/2/3 activity; format: biochemical; conditions: data not shown
AMPK = experiment: Western blot of AMPK activation; format: cell-based, human; conditions: 24 hours
Protocol: FIGS. 3D and G show SBI-477-mediated increase in glucose uptake in oleate-loaded skeletal myotubes (FIG. 3D) SBI-477 increases glucose uptake in oleate-loaded human skeletal myotubes. Basal and insulin-stimulated [3H]2-DG uptake was measured in human skeletal myotubes following treatment with SBI-477 for 24 hours in the presence of 100 μM oleate or BSA as a control. *p<0.05 vs. vehicle, †p<0.05 vs. vehicle/insulin by one-way ANOVA with Bonferroni post hoc test. FIG. 3G—Western blot analysis (left) of human myotubes treated with SBI-477 for 24 hours was performed to determine activation of S6K and AMPK using the indicated phospho-specific antibodies. Insulin treatment (100 nM) for 30 minutes was used as positive control. Quantitation (right) of the Western blot data is shown (n=4-5). *p<0.05 vs. Vehicle by one-way ANOVA with Bonferroni post hoc test. The data represent mean±SD.
Cells were lysed in the RIPA buffer containing 1% NP-40, 5 mM Na4P2O7, 1 mM EDTA, 20 mM NaF, 2 mM Na3VO4, 1× cOmplete™ protease inhibitor (Roche) and 1 mM phenylmethylsulfonyl fluoride. Whole cell lysates were subjected to SDS-PAGE and transferred to a nitrocellulose membrane. The blots were hybridized with specific antibodies and developed with enhanced chemiluminescence kit (Pierce). […] Protein quantification was performed using FluorChemQ (Alpha Innotech) and normalized to […]-actin or total protein where indicated.

TXNIP = TXNIP expression by quantitative RT-PCR in human myotubes; format: cell-based; conditions: 24 hours
Protocol: FIGS. 4A-C show downregulation of TXNIP and ARRDC4 expression by SBI-477. (FIG. 4A) TXNIP and ARRDC4 mRNA levels as determined by quantitative RT-PCR in human myotubes treated with SBI-477 (10 μM) or DGAT1 inhibitor (DGATi, […]) for 24 hours in the absence or presence of 100 μM oleate (n=4). Expression is shown relative to vehicle/BSA treatment. (FIG. 4B) TXNIP gene expression following exposure to a dose range of SBI-477 for 24 hours (n=4). (FIG. 4C) Left, Effect of SBI-477 on TXNIP protein levels as determined by western blot analysis by SBI-477. Right, Quantitation of the TXNIP western blot data is shown (n=5). *p<0.05 vs. Vehicle/BSA control, †p<0.05 vs. Vehicle/oleate by one-way ANOVA with Bonferroni post hoc test. The data are shown as mean±SD.
Total RNA was isolated using RNeasy Mini Kit (Qiagen) according to the manufacturer's instructions. cDNA was synthesized using the Affinity Script cDNA Synthesis Kit (Stratagene) with 0.5 μg of total RNA. PCR reactions were performed in triplicate […] Roche LightCycler® 480 Instrument II) with specific primers for each gene.

SCD-1, sequence (O00767 whole entry, species assumed): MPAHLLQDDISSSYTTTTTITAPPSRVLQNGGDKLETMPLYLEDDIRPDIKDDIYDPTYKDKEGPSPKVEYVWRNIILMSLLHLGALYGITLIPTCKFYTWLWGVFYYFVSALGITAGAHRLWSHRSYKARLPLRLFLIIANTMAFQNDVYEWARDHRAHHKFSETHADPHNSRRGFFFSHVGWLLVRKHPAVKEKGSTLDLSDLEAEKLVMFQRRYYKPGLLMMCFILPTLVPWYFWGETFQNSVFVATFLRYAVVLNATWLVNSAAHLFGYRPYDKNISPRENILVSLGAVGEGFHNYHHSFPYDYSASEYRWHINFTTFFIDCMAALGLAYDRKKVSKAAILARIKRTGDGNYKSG

IC50 [1]: < 1 µM
EC50 (rat H9c2 myocytes): ~0.1 µM
Direct inhibition of SCD-1 activity (SCD-1): not found that SBI-477 directly inhibits
SMILES: COc1ccc(-c2csc(NC(=O)c3ccc(OCC(=O)N4CCOCC4)c(OC)c3)n2)cc1 [Cpd. 7, 3-methoxy-N-(4-(4-methoxyphenyl)thiazol-2-yl)-4-(2-morpholino-2-oxoethoxy)benzamide]
Increase of basal and insulin stimulated glucose uptake (human skeletal myotubes): approximately 84%
FAO rates [2]: increased by SBI-477 in a dose-dependent manner
Direct inhibition of MGAT1/2/3 activity (MGAT1/2/3): not found that SBI-477 directly inhibits
AMPK activation (AMPK): activation of AMPK
TXNIP expression (TXNIP): robust, dose-dependent downregulation
